Measurements reported in patent publication US11078467B2 (University of Florida Research Foundation, Incorporated, priority 2016, dated 2021).
“Also recorded” adds a separate entry of the source. Read-outs that look alike come from different tables or passages of the source.

How the values were obtained:
[1] = molecular target: T1, TB14 (UniProt C9ZDC6+P14779); test: Binding affinities of Trp analogues toward TB14 (spectral shift titration); conditions: for Kd: read-out: TB14 Kd, 1.5 μM enzyme, 25 mM Tris-HCl, pH 8.0; for Interaction with TB14 in spectroscopic analysis (in words): Type I spectral shift
T1 construct: 14-aa linker […]; BM3R, reductase domain of P450BM3 (CYP102A1), fusion partner after the linker; inferred from Ni-NTA purification and the pET28b vector; made in house; host or cells: E. coli BL21 (DE3)-GOLD, pET28b-TxtE-BM3R
Procedure: (§1) The ferric heme of enzymes was then saturated with carbon monoxide (Airgas) through bubbling and the spectra of the saturated enzyme solutions were recorded. Immediately, sodium dithionite solution (30 μL, 0.5 M) was added to reduce ferric ion, and reduced spectra were taken subsequently. CO reduced difference spectra of all enzymes were created by subtracting the CO binding spectra from the reduced spectra. Data were further analyzed by Excel. […] Not more than 10 μl of substrate stock solutions prepared in the above buffer were added to the sample cuvette with an interval of 0.5 μl, and the spectra were recorded from 300 nm to 500 nm each time. The equal volume of buffer was added to the reference cuvette. The changes in absorbance (AA) were determined by subtracting the absorbance at ˜420 nm from that at ˜390 nm. Data were then fitted to the equation of ΔA=ΔAmax[L]/(Kd+[L]) using GraphPad Prism 4.

[2] = molecular target: T2, TxtE (Streptomyces scabiei, UniProt C9ZDC6); test: biochemical; format: binding, S. scabies; parameters: inferred from Ni-NTA purification and the pET28b vector; made in house; host or cells: E. coli BL21 (DE3)-GOLD, pET28b; conditions: for Interaction with TxtE in spectroscopic analysis (in words): Type I spectral shift
Procedure: as §1

[3] = molecular target: T2, TxtE; format: biochemical, S. scabies; parameters: inferred from Ni-NTA purification and the pET28b vector; made in house; conditions: 0.5 mM substrate, 45 min, FIG. 8
Procedure: (§2) The reactions were prepared and then incubated at 20° C., 300 rpm for 45 minutes. All experiments were repeated at least three times.
(§3) After centrifugation, 10 μl solutions were analyzed by HPLC. […] All reactions were independently repeated at least three times. […] All experiments were performed at least in triplicate.

[4] = molecular target: T1, TB14; test: Nitration of Trp and its analogues by TB14 (45 min, HPLC); format: biochemical; conditions: FIG. 8; for Nitration activity of TB14 toward the substrate (in words): 0.5 mM substrate, 45 min
Procedure: as §2, §3

[5] = molecular target: T3, TB14 (UniProt C9ZDC6); test: Binding affinities of Trp analogues toward TB14 (spectral shift titration); conditions: 1.5 μM enzyme, 25 mM Tris-HCl, pH 8.0
T3 construct: 14-aa linker […]; BM3R, reductase domain of P450BM3 (CYP102A1), fusion partner after the linker; inferred from Ni-NTA purification and the pET28b vector; made in house; host or cells: E. coli BL21 (DE3)-GOLD, pET28b-TxtE-BM3R
Procedure: as §1

[6] = read-out: TxtE Kd, 1.5 μM enzyme, 25 mM Tris-HCl, pH 8.0

Structure (SMILES)	Kd [2, 6] [µM]	Kd [5] [µM]	Kd [2] [µM]	further results
NC(Cc1c[nH]c2cccc(F)c12)C(=O)O (racemic) [Example 4-F-Trp, 4-F-DL-Trp]	189 ± 11.1	–	–	Kd [1]: 175 ± 12.9 µM
Cc1cccc2[nH]cc(CC(N)C(=O)O)c12 (racemic) [Example 4-Me-DL-Trp]	–	–	–	Interaction with TB14 in spectroscopic analysis (in words) [1]: more tightly than 4-F-DL-Trp; Interaction with TxtE in spectroscopic analysis (in words) [2]: more tightly than 4-F-DL-Trp; Nitration activity of TxtE toward the substrate (in words) [3]: good activity; Nitration activity of TB14 toward the substrate (in words) [4]: good activity; Nitration by TB14 favoured over 4-F-DL-Trp [4]: about 8 times
Cc1cccc2[nH]cc(CC(N)C(=O)O)c12 (racemic) [Example 4-Me-Tr, 4-Me-DL-Tryptophan]	–	13.5 ± 0.98	9.58 ± 0.36	–
Cc1ccc2[nH]cc(CC(N)C(=O)O)c2c1 (racemic) [Example 5-Me-Trp, 5-Me-DL-Trp]	–	29.9 ± 1.03	34.7 ± 0.99	Nitration activity of TxtE toward the substrate (in words) [3]: good activity; Nitration activity of TB14 toward the substrate (in words) [4]: good activity
COc1ccc2[nH]cc(CC(N)C(=O)O)c2c1 (racemic) [Example 5-MeO-Trp, 5-MeO-DL-Trp]	–	25.8 ± 1.84	29.1 ± 1.16	–
N[C@@H](Cc1c[nH]c2cc(F)ccc12)C(=O)O (racemic) [Example 6-F-Trp, 6-F-DL-Trp]	73.4 ± 6.06	–	–	Kd [1]: 65.3 ± 4.49 µM; Nitration activity of TxtE toward the substrate (in words) [3]: good activity; Nitration activity of TB14 toward the substrate (in words) [4]: good activity
Cc1cccc2c(CC(N)C(=O)O)c[nH]c12 (racemic) [Example 7-Me-Trp, 7-Me-DL-Trp]	–	10.6 ± 0.75	12.9 ± 0.99	–
CC(N)(Cc1c[nH]c2ccccc12)C(=O)O (racemic) [α-Me-Trp, α-Me-DL-Trp]	–	94.7 ± 8.52	100 ± 4.3	–
O=C(O)C1Cc2c([nH]c3ccccc23)CN1 (stereo not drawn) [2,3,4,9-Tetrahydro-1H-β-carboline-3-carboxynate]	–	731 ± 86	579 ± 44.4	–
O=C(O)Cc1c[nH]c2ccccc12 [3-Indoleacetic acid]	–	–	> 17000	–
N[C@@H](Cc1c[nH]c2ncccc12)C(=O)O [7-Azatryptophan]	16.8 ± 0.28	25.5 ± 0.58	–	–
N[C@H](Cc1c[nH]c2ccccc12)C(=O)O [D-Trp]	–	470 ± 25.3	432 ± 17.2	–
N[C@@H](Cc1c[nH]c2ccc(F)cc12)C(=O)O [Example 5-F-L-Trp, 5-F-L-Trp]	84.2 ± 4.37	–	–	Kd [1]: 77.5 ± 5.74 µM; Nitration activity of TxtE toward the substrate (in words) [3]: good activity; also recorded: best substrate of TxtE; Nitration activity of TB14 toward the substrate (in words) [4]: good activity; also recorded: comparable to Trp
N[C@@H](Cc1c[nH]c2ccc(O)cc12)C(=O)O [Example 5-OH-L-Trp, 5-OH-L-Trp]	–	453 ± 15.5	341 ± 26.4	–
O=C(O)c1c[nH]c2ccccc12 [Indole-3-carboxylic acid]	–	–	> 9000	–
O=C(O)C(O)Cc1c[nH]c2ccccc12 (stereo not shown) [Indole-3-lactic acid]	–	–	> 7000	–
O=C(O)C(=O)Cc1c[nH]c2ccccc12 [Indole-3-pyruvic acid]	386 ± 42.5	–	–	Kd [1]: 478 ± 31.6 µM
N[C@@H](Cc1c[nH]c2ccccc12)C(=O)O [L-Trp, L-tryptophan]	24.8 ± 1.11	17.4 ± 0.95	–	–
N[C@H](CO)Cc1c[nH]c2ccccc12 [L-tryptophanol]	–	280 ± 43.2	221 ± 32.4	–
NCCc1c[nH]c2ccc(O)cc12 [Serotonin]	322 ± 31.4	–	–	Kd [1]: 310 ± 38.5 µM
N[C@@H](Cc1c[nH]c2ccccc12)C(=O)O [Trp]	–	–	–	Nitration activity of TxtE toward the substrate (in words) [3]: nitrated; Nitration activity of TB14 toward the substrate (in words) [4]: nitrated
NCCc1c[nH]c2ccccc12 [Tryptamine]	68.4 ± 6.19	–	–	Kd [1]: 59.8 ± 7.88 µM
c1ccc2[nH]ccc2c1 [indole]	–	–	–	Interaction with TB14 in spectroscopic analysis (in words) [1]: no detectable level of interaction; Interaction with TxtE in spectroscopic analysis (in words) [2]: no detectable level of interaction
